Results taken from the supplement of paper PMC10307832.

Legend:
Test in all cases: relative viability (nuclei count vs DMSO), 5 days (fraction); higher = more cells survive
[1] = compound: CC(C)C[C@H](NC(=O)[C@H](Cc1ccccc1)NC(=O)c1cnccn1)B(O)O [Bortezomib] + CC(=O)c1c(C)c2cnc(Nc3ccc(N4CCNCC4)cn3)nc2n(C2CCCC2)c1=O [Palbociclib] (partner 0.5 µM)
Outline: (§1)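 Medians of duplicate plates are given as relative viability. That measure is the nuclei count in treated wells divided by the count in vehicle wells. Counts were taken on 4× images of lung cancer cell lines in 1536-well plates, 5 days after pin-tool dosing the day after seeding with one drug alone or a fixed anchor-drug dose plus five library-drug doses (not always all listed) in √10 steps.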

[2] = compound: CC(C)C[C@H](NC(=O)[C@H](Cc1ccccc1)NC(=O)c1cnccn1)B(O)O [Bortezomib] + Cc1nc(NC(=O)N2CCC[C@H]2C(N)=O)sc1-c1ccnc(C(C)(C)C(F)(F)F)c1 [Alpelisib] (partner 2 µM)
Outline: as §1

[3] = compound: CC1=CC(=NN1)NC2=CC(=NC(=N2)/C=C/C3=CC=CC=C3)N4CCN(CC4)C + CS(=O)(=O)CCNCc1ccc(-c2ccc3ncnc(Nc4ccc(OCc5cccc(F)c5)c(Cl)c4)c3c2)o1 [Lapatinib] (partner 2 µM)
Outline: as §1

[4] = compound: COC1=CC(c2cc3ccccc3[nH]2)=N/C1=C\c1[nH]c(C)cc1C [Obatoclax] + N=C(N)NC(=N)NCCc1ccccc1 [Phenformin] (partner 250 µM)
Outline: as §1

Work on PC-3 [JPC-3] yielded a relative viability ([1]; first compound 0.0002 µM) of 0.521, a relative viability ([1]; first compound 0.000632 µM) of 0.583 and a relative viability ([1]; first compound 0.002 µM) of 0.413. It also gave a relative viability ([1]; first compound 0.006325 µM) of 0.285, a relative viability ([1]; first compound 0.02 µM) of 0.227 and a relative viability ([2]; first compound 0.0002 µM) of 1.03. For the same cell line, the relative viability ([2]; first compound 0.000632 µM) was 1.04, the relative viability ([2]; first compound 0.002 µM) was 0.786 and the relative viability ([2]; first compound 0.006325 µM) was 0.901. For the same cell line, the relative viability ([2]; first compound 0.02 µM) was 0.134, the relative viability ([3]; first compound 0.08 µM) was 0.445 and the relative viability ([3]; first compound 0.253 µM) was 0.46. For the same cell line, the relative viability ([3]; first compound 0.8 µM) was 0.466, the relative viability ([3]; first compound 2.53 µM) was 0.408 and the relative viability ([3]; first compound 8 µM) was 0.368. It also gave a relative viability ([4]; first compound 0.01 µM) of 0.477, a relative viability ([4]; first compound 0.03162 µM) of 0.486 and a relative viability ([4]; first compound 0.1 µM) of 0.511. The relative viability ([4]; first compound 0.3162 µM) was 0.473 and the relative viability ([4]; first compound 1 µM) was 0.489.

Cell Line HCC-44 has a relative viability ([1]; first compound 0.0002 µM) of 1.02, a relative viability ([1]; first compound 0.000632 µM) of 1.02 and a relative viability ([1]; first compound 0.002 µM) of 0.943. It also gave a relative viability ([1]; first compound 0.006325 µM) of 0.759, a relative viability ([1]; first compound 0.02 µM) of 0.278 and a relative viability ([2]; first compound 0.0002 µM) of 0.831. The relative viability ([2]; first compound 0.000632 µM) was 0.776, the relative viability ([2]; first compound 0.002 µM) was 0.84 and the relative viability ([2]; first compound 0.006325 µM) was 0.0994. For the same cell line, the relative viability ([2]; first compound 0.02 µM) was 0.115, the relative viability ([3]; first compound 0.08 µM) was 1.02 and the relative viability ([3]; first compound 0.253 µM) was 1.07. The relative viability ([3]; first compound 0.8 µM) was 0.955, the relative viability ([3]; first compound 2.53 µM) was 0.85 and the relative viability ([3]; first compound 8 µM) was 0.101. It also gave a relative viability ([4]; first compound 0.01 µM) of 0.268, a relative viability ([4]; first compound 0.03162 µM) of 0.185 and a relative viability ([4]; first compound 0.1 µM) of 0.0802. For the same cell line, the relative viability ([4]; first compound 0.3162 µM) was 0.14 and the relative viability ([4]; first compound 1 µM) was 0.111.

NCI-H2405 was tested, and the relative viability ([1]; first compound 0.0002 µM) was 0.503, the relative viability ([1]; first compound 0.000632 µM) was 0.547 and the relative viability ([1]; first compound 0.002 µM) was 0.349. For the same cell line, the relative viability ([1]; first compound 0.006325 µM) was 0.143, the relative viability ([1]; first compound 0.02 µM) was 0.141 and the relative viability ([2]; first compound 0.0002 µM) was 0.812. It also gave a relative viability ([2]; first compound 0.002 µM) of 0.336, a relative viability ([2]; first compound 0.006325 µM) of 0.134 and a relative viability ([2]; first compound 0.02 µM) of 0.16. It also gave a relative viability ([3]; first compound 0.08 µM) of 1.09, a relative viability ([3]; first compound 0.253 µM) of 0.87 and a relative viability ([3]; first compound 0.8 µM) of 1.22. It also gave a relative viability ([3]; first compound 2.53 µM) of 0.696, a relative viability ([3]; first compound 8 µM) of 0.133 and a relative viability ([4]; first compound 0.01 µM) of 0.411. The relative viability ([4]; first compound 0.03162 µM) was 0.394, the relative viability ([4]; first compound 0.3162 µM) was 0.402 and the relative viability ([4]; first compound 1 µM) was 0.411.

Cell Line LXF-289 has a relative viability ([1]; first compound 0.0002 µM) of 0.573, a relative viability ([1]; first compound 0.000632 µM) of 0.58 and a relative viability ([1]; first compound 0.002 µM) of 0.633. For the same cell line, the relative viability ([1]; first compound 0.006325 µM) was 0.102, the relative viability ([1]; first compound 0.02 µM) was 0.0908 and the relative viability ([2]; first compound 0.0002 µM) was 1.03. For the same cell line, the relative viability ([2]; first compound 0.000632 µM) was 1.01, the relative viability ([2]; first compound 0.002 µM) was 0.946 and the relative viability ([2]; first compound 0.006325 µM) was 0.0804. The relative viability ([2]; first compound 0.02 µM) was 0.0589, the relative viability ([3]; first compound 0.08 µM) was 0.918 and the relative viability ([3]; first compound 0.253 µM) was 0.969. For the same cell line, the relative viability ([3]; first compound 0.8 µM) was 0.839, the relative viability ([3]; first compound 2.53 µM) was 0.487 and the relative viability ([3]; first compound 8 µM) was 0.574. It also gave a relative viability ([4]; first compound 0.01 µM) of 0.484, a relative viability ([4]; first compound 0.03162 µM) of 0.53 and a relative viability ([4]; first compound 0.1 µM) of 0.496. The relative viability ([4]; first compound 0.3162 µM) was 0.505 and the relative viability ([4]; first compound 1 µM) was 0.458.

With LOU-NH91 the relative viability ([1]; first compound 0.0002 µM) was 0.512, the relative viability ([1]; first compound 0.000632 µM) was 0.523 and the relative viability ([1]; first compound 0.002 µM) was 0.383. For the same cell line, the relative viability ([1]; first compound 0.006325 µM) was 0.32, the relative viability ([1]; first compound 0.02 µM) was 0.302 and the relative viability ([2]; first compound 0.0002 µM) was 0.72. For the same cell line, the relative viability ([2]; first compound 0.000632 µM) was 0.628, the relative viability ([2]; first compound 0.002 µM) was 0.395 and the relative viability ([2]; first compound 0.006325 µM) was 0.309. The relative viability ([2]; first compound 0.02 µM) was 0.305, the relative viability ([3]; first compound 0.08 µM) was 0.669 and the relative viability ([3]; first compound 0.253 µM) was 0.785. For the same cell line, the relative viability ([3]; first compound 0.8 µM) was 0.698, the relative viability ([3]; first compound 2.53 µM) was 0.567 and the relative viability ([3]; first compound 8 µM) was 0.333. For the same cell line, the relative viability ([4]; first compound 0.01 µM) was 0.716, the relative viability ([4]; first compound 0.03162 µM) was 0.657 and the relative viability ([4]; first compound 0.1 µM) was 0.499. The relative viability ([4]; first compound 0.3162 µM) was 0.403 and the relative viability ([4]; first compound 1 µM) was 0.432.

For A549, the relative viability ([2]; first compound 0.0002 µM) was 0.769, the relative viability ([2]; first compound 0.000632 µM) was 0.706 and the relative viability ([2]; first compound 0.002 µM) was 0.756. It also gave a relative viability ([2]; first compound 0.006325 µM) of 0.055, a relative viability ([2]; first compound 0.02 µM) of 0.0365 and a relative viability ([3]; first compound 0.08 µM) of 0.924. The relative viability ([3]; first compound 0.253 µM) was 0.954, the relative viability ([3]; first compound 0.8 µM) was 0.772 and the relative viability ([3]; first compound 2.53 µM) was 0.102. For the same cell line, the relative viability ([3]; first compound 8 µM) was 0.0367, the relative viability ([4]; first compound 0.01 µM) was 0.131 and the relative viability ([4]; first compound 0.03162 µM) was 0.248. The relative viability ([4]; first compound 0.1 µM) was 0.035, the relative viability ([4]; first compound 0.3162 µM) was 0.222 and the relative viability ([4]; first compound 1 µM) was 0.0807.

H3255 gave a relative viability ([1]; first compound 0.0002 µM) of 0.322, a relative viability ([1]; first compound 0.000632 µM) of 0.335 and a relative viability ([1]; first compound 0.002 µM) of 0.285. For the same cell line, the relative viability ([1]; first compound 0.006325 µM) was 0.256, the relative viability ([1]; first compound 0.02 µM) was 0.243 and the relative viability ([2]; first compound 0.0002 µM) was 0.688. The relative viability ([2]; first compound 0.000632 µM) was 0.696, the relative viability ([2]; first compound 0.002 µM) was 0.479 and the relative viability ([2]; first compound 0.006325 µM) was 0.156. It also gave a relative viability ([2]; first compound 0.02 µM) of 0.163, a relative viability ([3]; first compound 0.08 µM) of 0.244 and a relative viability ([3]; first compound 0.253 µM) of 0.211. The relative viability ([3]; first compound 0.8 µM) was 0.478, the relative viability ([3]; first compound 2.53 µM) was 0.203 and the relative viability ([3]; first compound 8 µM) was 0.123. For the same cell line, the relative viability ([4]; first compound 0.01 µM) was 0.306, the relative viability ([4]; first compound 0.03162 µM) was 0.377 and the relative viability ([4]; first compound 0.1 µM) was 0.372. The relative viability ([4]; first compound 0.3162 µM) was 0.335 and the relative viability ([4]; first compound 1 µM) was 0.42.

NCI-H1395 was tested, and the relative viability ([1]; first compound 0.0002 µM) was 0.591, the relative viability ([1]; first compound 0.000632 µM) was 0.614 and the relative viability ([1]; first compound 0.002 µM) was 0.38. For the same cell line, the relative viability ([1]; first compound 0.006325 µM) was 0.31, the relative viability ([1]; first compound 0.02 µM) was 0.253 and the relative viability ([2]; first compound 0.0002 µM) was 1.15. For the same cell line, the relative viability ([2]; first compound 0.000632 µM) was 1.06, the relative viability ([2]; first compound 0.002 µM) was 0.387 and the relative viability ([2]; first compound 0.006325 µM) was 0.411. The relative viability ([2]; first compound 0.02 µM) was 0.393, the relative viability ([3]; first compound 0.08 µM) was 1.22 and the relative viability ([3]; first compound 0.253 µM) was 1.03. The relative viability ([3]; first compound 0.8 µM) was 0.932, the relative viability ([3]; first compound 2.53 µM) was 0.456 and the relative viability ([3]; first compound 8 µM) was 0.275. It also gave a relative viability ([4]; first compound 0.01 µM) of 0.449, a relative viability ([4]; first compound 0.03162 µM) of 0.38 and a relative viability ([4]; first compound 0.1 µM) of 0.428. For the same cell line, the relative viability ([4]; first compound 0.3162 µM) was 0.467 and the relative viability ([4]; first compound 1 µM) was 0.44.
